How the values were obtained:
[1] = molecular target: T1, SGLT2 (Homo sapiens, UniProt P31639); test: 14C-AMG uptake in BHK cells transfected with SGLT2 (96-well cell-based assay); conditions: 2 mM AMG, 37° C., 90 min
T1 construct: expressed in transfected cells
T1 sequence (P31639 1-672): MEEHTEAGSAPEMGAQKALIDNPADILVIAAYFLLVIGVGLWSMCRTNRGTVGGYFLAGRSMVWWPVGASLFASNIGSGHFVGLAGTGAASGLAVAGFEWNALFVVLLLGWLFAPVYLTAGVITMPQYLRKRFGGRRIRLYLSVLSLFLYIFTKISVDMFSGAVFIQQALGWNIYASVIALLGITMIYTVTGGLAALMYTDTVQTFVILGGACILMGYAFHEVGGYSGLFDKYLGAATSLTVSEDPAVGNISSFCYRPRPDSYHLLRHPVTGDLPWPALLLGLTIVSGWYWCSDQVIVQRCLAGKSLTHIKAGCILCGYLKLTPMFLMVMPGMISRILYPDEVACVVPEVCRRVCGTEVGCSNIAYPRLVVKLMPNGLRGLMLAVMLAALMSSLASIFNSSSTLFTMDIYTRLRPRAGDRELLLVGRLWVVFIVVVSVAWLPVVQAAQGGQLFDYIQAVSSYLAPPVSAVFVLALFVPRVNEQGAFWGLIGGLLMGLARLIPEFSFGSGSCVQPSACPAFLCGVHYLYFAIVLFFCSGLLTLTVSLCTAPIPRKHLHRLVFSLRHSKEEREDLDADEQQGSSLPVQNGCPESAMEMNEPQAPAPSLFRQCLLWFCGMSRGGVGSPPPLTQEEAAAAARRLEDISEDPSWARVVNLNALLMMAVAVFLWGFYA
Description: (§1) The compounds can be tested for their SGLT inhibition properties by means of BHK cells expressing SGLT1 and SGLT2. The production of the cells and the testing can be carried out as described below.
To construct the SGLT2 expression vector (KL224), the SLC5A2 gene (homologous to NM_003041) was amplified from a cDNA library using standard PCR technology and cloned over NheI/XhoI sites into PCI-neo expression vector (Promega) containing neomycin as a selection marker. In this vector, transcription uses the enhancer/promoter of human cytomegalovirus and the SV40 polyadenylation signal.
(§2) The final vector KL224 together with an additional vector containing a dihydrofolate reductase gene as a selection marker was introduced into cells. Transfection into BHK21 cells (ATCC CCL-10), cultivated in DMEM medium (GIBCO/BRL), supplemented with 10% foetal calf serum (FCS) and 20 mM glutamine, was carried out using calcium phosphate transfections according to Graham, F. L. and van der Ebb, A. J. (1973), Virology 52: 456 with 5-20 μg of uncut plasmids for 10^7 cells. Stable transfectants were selected in medium containing 1 mg/ml of G418 (GIBCO/BRL) and 20-5000 nM methotrexate as final concentration, where only cells which expressed the neomycin gene and overexpressed the dhfr gene were able to grow. After growth for 2-3 weeks, the cells were cloned (0.5 cells/well) and the clones were investigated for SGLT expression in radioactivity uptake tests.
(§3) The uptake of ^14C-α-methyl-D-glucopyranoside (AMG) in, for example, Xenopus oocytes injected with the corresponding cRNA has been described in principle (for example Wen-Sen Lee et al. (1994), J. Biol. Chem. 269, 12032-12039; Guofeng You et al. (1995), J. Biol. Chem. 270, 29365-29371).
(§4) A 96-well cell-based assay was developed and adapted to HTS requirements:
(§5) BHK cells (transfected with SGLT1 or SGLT2) were seeded into 96-well microtitre plates (Cultureplates, Perkin Elmer). After at least 24 h, medium was removed, and the cell layer was washed with assay buffer (140 mM NaCl, 2 mM KCl, 1 mM CaCl2, 1 mM MgCl2, 10 mM HEPES, 5 mM Tris, adjusted to pH 7.4 using 1 M KOH). After addition of 40 μl of assay buffer, 50 μl of AMG (50 μM for SGLT1 and 2 mM for SGLT2) in the presence or absence of compounds, the cells were incubated in a total volume of 100 μl at 37° C. for 90 min. Supernatant was removed by suction and discarded. Cells were washed and lysed by addition of 50 μl of water. After 10 min at room temperature, 200 μl of Micrsoscint 40 (Perkin Elmer) were added. The radioactivity was counted in a Topcount microplate scintillation counter (Perkin Elmer). The non-specific uptake was determined in sodium-free assay buffer (266 mM sucrose, 2 mM KCl, 1 mM CaCl2, 1 mM MgCl2, 10 mM HEPES, 5 mM Tris, adjusted to pH 7.4 using 1 M KOH).

[2] = molecular target: T2, SGLT1 (Homo sapiens, UniProt P13866); test: 14C-AMG uptake in BHK cells transfected with SGLT1 (96-well cell-based assay); conditions: 50 μM AMG, 37° C., 90 min
T2 construct: expressed in transfected cells
T2 sequence (P13866 1-664): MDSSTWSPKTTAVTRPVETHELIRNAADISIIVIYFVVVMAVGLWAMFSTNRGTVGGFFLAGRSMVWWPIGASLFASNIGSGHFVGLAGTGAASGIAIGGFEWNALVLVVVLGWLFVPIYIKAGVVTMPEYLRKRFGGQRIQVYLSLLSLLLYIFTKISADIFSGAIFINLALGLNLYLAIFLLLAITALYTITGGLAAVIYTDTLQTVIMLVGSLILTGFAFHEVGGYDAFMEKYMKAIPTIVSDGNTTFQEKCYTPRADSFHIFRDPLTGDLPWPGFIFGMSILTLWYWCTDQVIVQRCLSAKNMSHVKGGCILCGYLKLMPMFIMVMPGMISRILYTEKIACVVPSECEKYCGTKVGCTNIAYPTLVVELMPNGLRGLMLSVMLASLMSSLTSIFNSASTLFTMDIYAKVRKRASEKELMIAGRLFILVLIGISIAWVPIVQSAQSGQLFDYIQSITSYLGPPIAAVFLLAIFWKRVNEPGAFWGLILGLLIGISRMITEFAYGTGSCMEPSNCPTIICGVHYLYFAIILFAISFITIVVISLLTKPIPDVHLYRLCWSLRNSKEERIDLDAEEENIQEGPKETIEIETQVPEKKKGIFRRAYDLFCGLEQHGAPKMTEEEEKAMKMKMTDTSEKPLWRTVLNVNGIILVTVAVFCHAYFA
Description: as §1
To construct the SGLT1 expression vector (KL225), the SLC5A1 gene (homologous to NM_000343) was amplified from a cDNA library using standard PCR technology and cloned over NheI/XhoI sites into the pcDNA3.1 expression vector (Invitrogen) containing neomycin as a selection marker. In this vector, transcription uses the enhancer/promoter of human cytomegalovirus.
as §2, with “KL225” for “KL224”
as §3, §4, §5

SMILES	IC50 [1] [µM]	IC50 [2] [µM]
Cc1cccc(C)c1Cn1c(-c2ccccc2OCC(N)=O)nc2cccc(Br)c21 [Compound A23, 2-{2-[7-Bromo-1-(2,6-dimethylbenzyl)-1H-benzimidazol-2-yl]phenoxy}acetamide]	> 10	> 10
Cc1cccc(C)c1Cn1c(-c2ncccc2OCC(N)=O)nc2ccccc21 [Compound A16, 2-{2-[1-(2,6-Dimethylbenzyl)-1H-benzimidazol-2-yl]pyridin-3-yloxy}acetamide]	> 10	
Cc1cc(C)c(Cn2c(-c3ccccc3OCC(N)=O)nc3ccc(F)cc32)c(C)c1 [Compound A6, 2-{2-[6-Fluoro-1-(2,4,6-trimethylbenzyl)-1H-benzimidazol-2-yl]phenoxy}acetamide]	> 10	> 10
NC(=O)COc1ccccc1-c1nc2cccc(Cl)c2n1Cc1c(Cl)cccc1Cl [Compound A21, 2-{2-[7-Chloro-1-(2,6-dichlorobenzyl)-1H-benzimidazol-2-yl]phenoxy}acetamide]	1 to 10	> 10
Cc1ccccc1Cn1c(-c2ccccc2OCC(N)=O)nc2ccccc21 [Compound A7, 2-{2-[1-(2-Methylbenzyl)-1H-benzimidazol-2-yl]-phenoxy}acetamide]	1 to 10	> 10
NC(=O)COc1ccccc1-c1nc2ccccc2n1Cc1ccccc1 [Compound A8, 2-[2-(1-Benzyl-1H-benzimidazol-2-yl)phenoxy]-acetamide]	> 10	> 10
COc1ccc(-c2nc3ccccc3n2Cc2c(C)cccc2C)c(OCC(N)=O)c1 [Compound A13, 2-{2-[1-(2,6-Dimethylbenzyl)-1H-benzimidazol-2-yl]-5-methoxyphenoxy}acetamide]	1 to 10	> 10
Cc1cccc(Cl)c1Cn1c(-c2ccccc2OCC(N)=O)nc2ccccc21 [Compound A22, 2-{2-[1-(2-Chloro-6-methylbenzyl)-1H-benzimidazol-2-yl]phenoxy}acetamide]	1 to 10	> 10
COc1cccc(-c2nc3ccccc3n2Cc2c(C)cccc2C)c1OCC(N)=O [Compound A11, 2-{2-[1-(2,6-Dimethylbenzyl)-1H-benzimidazol-2-yl]-6-methoxyphenoxy}acetamide]	1 to 10	

More lines, now with the values ahead:

IC50 [1] [µM]	IC50 [2] [µM]	SMILES
1 to 10	> 10	Cc1cccc(C)c1Cn1c(-c2cccc(C)c2OCC(N)=O)nc2ccccc21 [Compound A12, 2-{2-[1-(2,6-Dimethylbenzyl)-1H-benzimidazol-2-yl]-6-methylphenoxy}acetamide]
0.01 to 1	> 10	Cc1cccc(C)c1Cn1c(-c2ccccc2OCC(N)=O)nc2cc(F)c(F)cc21 [Compound A5, 2-{2-[1-(2,6-Dimethylbenzyl)-5,6-difluoro-1H-benzimidazol-2-yl]phenoxy}acetamide]
1 to 10	> 10	Cc1cccc(C)c1Cn1c(-c2ccccc2OC2CCNC2=O)nc2ccccc21 (centres unmarked) [Compound A26, 3-{2-[1-(2,6-Dimethylbenzyl)-1H-benzimidazol-2-yl]phenoxy}pyrrolidin-2-one]
1 to 10	> 10	Cc1cccc(C)c1Cn1c(-c2ccccc2OCC(N)=O)nc2ccc(F)c(F)c21 [Compound A29, 2-{2-[1-(2,6-Dimethylbenzyl)-6,7-difluoro-1H-benzimidazol-2-yl]phenoxy}acetamide]
0.01 to 1	> 10	Cc1cccc(C)c1Cn1c(-c2cccc(F)c2OCC(N)=O)nc2ccccc21 [Compound A10, 2-{2-[1-(2,6-Dimethylbenzyl)-1H-benzimidazol-2-yl]-6-fluorophenoxy}acetamide]
0.01 to 1		Cc1cccc(C)c1Cn1c(-c2c(F)cccc2OCC(N)=O)nc2ccccc21 [Compound A3, 2-{2-[1-(2,6-Dimethylbenzyl)-1H-benzimidazol-2-yl]-3-fluorophenoxy}acetamide]
0.01 to 1	1 to 10	Cc1cccc(C)c1Cn1c(-c2ccccc2OCC(N)=O)nc2cccc(Cl)c21 [Compound A24, 2-{2-[7-Chloro-1-(2,6-dimethylbenzyl)-1H-benzimidazol-2-yl]phenoxy}acetamide]
1 to 10	> 10	NC(=O)COc1ccccc1-c1nc2ccccc2n1Cc1c(F)cccc1F [Compound A9, 2-{2-[1-(2,6-Difluorobenzyl)-1H-benzimidazol-2-yl]phenoxy}acetamide]
0.01 to 1	1 to 10	COc1cc(C)c(-c2nc3ccc(F)c(F)c3n2Cc2c(C)cccc2C)c(OCC(N)=O)c1 [Compound A30, 2-{2-[1-(2,6-Dimethylbenzyl)-6,7-difluoro-1H-benzimidazol-2-yl]-5-methoxy-3-methylphenoxy}acetamide]
0.01 to 1	> 10	Cc1cccc(C)c1Cn1c(-c2ccccc2OCC(N)=O)nc2ccc(F)cc21 [Compound A4, 2-{2-[1-(2,6-Dimethylbenzyl)-6-fluoro-1H-benzimidazol-2-yl]phenoxy}acetamide]
0.01 to 1	> 10	Cc1ccc(-c2nc3ccccc3n2Cc2c(C)cccc2C)c(OCC(N)=O)c1 [Compound A14, 2-{2-[1-(2,6-Dimethylbenzyl)-1H-benzimidazol-2-yl]-5-methylphenoxy}acetamide]
0.01 to 1		CNc1nnc(-c2ccccc2-c2nc3ccccc3n2Cc2c(C)cccc2C)o1 [Compound A31]

— patent publication US8119675B2, “Benzimidazole derivatives” (Merck Patent GmbH, priority 2007, dated 2012)
